Assay [1] addresses T1, yeast α-GLy (α-glucosidase, Sigma G0660) (Saccharomyces cerevisiae, UniProt P53341).
T1 construct: purchased Sigma G0660
Description: biochemical. The conditions noted are these: yeast α-glucosidase, 37°C, pH 6.8; read-out: IC50 ± SE, α-glucosidase inhibition. In kind it is biochemical.

Assay [2] relates to Escherichia coli (ATCC 25922). Description: Antimicrobial broth microdilution. In kind it is cell-based. The conditions noted are these: ATCC25922, E. coli. On the procedure:
(§1) Table S2. The result of antimicrobial tests of compounds 38, 45, 48 and 50.
(§2) Gram (+) strains Gram (-) strains Fungi
(§3) Compound Values (µg/ml) S. aureus B. L. S. E. P. C. subtilis fermentum enterica coli aeruginosa albican
(§4) The antimicrobial activity was determined by broth microdilution method as reported by. Broth dilution testing is one of the common methods used for determination of the MICs and IC50. The compounds are examined for visible bacterial growth as evidenced by turbidity. […]
(§5) S1.5. In vitro antimicrobial activity study of compounds 38, 45, 48 and 50 The Gram-positive bacteria: Bacillus subtilis (ATCC 6633), Lactobacillus fermentum (N4), Staphylococcus aureus (ATCC 13709); Gram -negative bacteria: Escherichia coli (ATCC 25922), Pseudomonas aeruginosa (ATCC 15442), Salmonella enterica; Yeast: Candida albicans (ATCC 10231) were obtained from American Type Culture Collection. The bacterial […]
(§6) Sabourand 2% dextrose broth, were purchased from Merck. […]
(§7) remaining at –80 0 C. Before assay, they were activated by culture medium and, adjusted the concentration to 5x10^5 CFU/mL. 10 μL of each concentration of each test […]
(§8) further incubated at 37 °C within 16-24h. The experiment was triplicated. Positive […]
(§9) medium without bacteria as a negative control. Ampicillin was used as a reference […]
(§10) inhibiting 50% the visible growth of the tested microorganisms. MIC, IC50 values are typically expressed as molar concentration. […]
(§11) treated with sample different concentrations on 96-well plates. Untreated cells represented the controls. […]
(§12) crystals are visible. Remove MTT and add DMSO solution (100 μL). The optical density […]
(§13) are evaluated to have cytotoxic activity.
In general terms: Broth dilution looks for growth in wells or tubes with falling amounts of substance.

The subject of assay [3] is Lactobacillus fermentum (N4). The assay is described as follows: Antimicrobial broth microdilution. It counts as cell-based. The conditions noted are these: L. fermentum. On the procedure: as §1, §2, §3, §4, §5, §6, §7, §8, §9, §10, §11, §12, §13
In assay [4] the test system is Pseudomonas aeruginosa (ATCC 15442). The assay is described as follows: Antimicrobial broth microdilution. The conditions noted are these: ATCC15442, P. aeruginosa. It counts as cell-based. On the procedure:
as §1, §2, §3, §4, §5, §6, §7, §8, §9, §10, §11, §12, §13

Assay [5] deals with Candida albicans (ATCC 10231). The assay is described as follows: Antimicrobial broth microdilution. The conditions noted are these: ATCC10231, C. albican. It counts as cell-based. The procedure:
as §1, §2, §3, §4, §5, §6, §7, §8, §9, §10, §11, §12, §13

T1 sequence (P53341 whole entry): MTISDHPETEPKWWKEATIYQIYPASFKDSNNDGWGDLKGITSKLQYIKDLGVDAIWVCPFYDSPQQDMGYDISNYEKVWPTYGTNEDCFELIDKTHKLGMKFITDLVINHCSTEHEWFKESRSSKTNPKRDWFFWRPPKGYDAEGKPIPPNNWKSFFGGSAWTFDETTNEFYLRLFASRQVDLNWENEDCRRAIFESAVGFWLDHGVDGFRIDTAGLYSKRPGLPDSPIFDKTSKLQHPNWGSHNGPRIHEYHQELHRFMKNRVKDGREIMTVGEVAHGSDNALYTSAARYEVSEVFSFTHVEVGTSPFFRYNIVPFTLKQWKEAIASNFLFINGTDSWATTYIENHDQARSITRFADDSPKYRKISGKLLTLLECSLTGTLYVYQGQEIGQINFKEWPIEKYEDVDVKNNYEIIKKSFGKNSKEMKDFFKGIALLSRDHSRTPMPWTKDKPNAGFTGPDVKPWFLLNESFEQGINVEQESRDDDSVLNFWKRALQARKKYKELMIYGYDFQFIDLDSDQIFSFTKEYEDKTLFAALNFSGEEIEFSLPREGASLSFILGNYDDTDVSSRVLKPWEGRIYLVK

In general, IC50 refers to the midpoint of a concentration-inhibition curve. One may read the MIC as the lowest concentration found to suppress growth. Turning to `C#CCOC(=O)C1(C)CCCC2(C)C1CCC13C=C(C(C)C)C(CC12)c1c(O)cc2c(C(=O)OC)c(C)[nH]c2c13` (stereo not drawn) [Compound 45, Methyl 7-propynyl 1-hydroxy-13-isopropyl-7,10a,2′-trimethyl-5,6,6b,7,8,9,10,10a,10b,11,12,13-dodecahydro-12,4b-ethenophenanthro [2,1-g]indole-7,1′-dicarboxylate], the IC50 in assay [1] was 150 ± 8 nM; in assay [2] it was greater than 256 µg/mL; in assay [3], greater than 256 µg/mL; in assay [4], greater than 256 µg/mL; in assay [5], greater than 256 µg/mL. Moreover, the MIC in assay [2], in assay [3], in assay [4] and in assay [5] was greater than 256 µg/mL throughout.

Source of the values: publication PMC9655717, “New Molecules of Diterpene Origin with Inhibitory Properties toward α-Glucosidase” (International Journal of Molecular Sciences, 2022).
